Data as given in ChEMBL document CHEMBL5131551, “Novel Bicyclic Dione Compounds as KRAS Inhibitors for Treating Cancer” (ACS Med Chem Lett, 2022).

Columns and labels:
GTPase KRas [1] = molecular target: T1, GTPase KRas (Homo sapiens, UniProt P01116, G12C); assay: Inhibition of BODIPY loaded KRAS G12C mutant (unknown origin) assessed as inhibition of GDP-GTP exchange rate preincubated for 2 hrs and measured after 2 hrs in presence of SOS1-GppNHp mixture by BODIPY fluorescence based PHERAstar plate reader analysis
T1 sequence (P01116 whole entry G12C): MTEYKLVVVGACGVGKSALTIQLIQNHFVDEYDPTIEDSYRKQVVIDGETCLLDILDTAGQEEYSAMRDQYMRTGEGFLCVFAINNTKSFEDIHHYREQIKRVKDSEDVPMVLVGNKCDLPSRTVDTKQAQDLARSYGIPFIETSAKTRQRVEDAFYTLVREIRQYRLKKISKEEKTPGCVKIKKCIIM

GTPase KRas [2] = molecular target: T1, GTPase KRas; assay: Inhibition of KRAS G12C mutant in human MIA PaCa-2 cells assessed as reduction in phosphorylated ERK level incubation for 2 to 4 hrs by HTRF assay; type: cell-based

Structure (SMILES)	IC50 (GTPase KRas [1]) [nM]	IC50 (GTPase KRas [2]) [nM]
C=CC(=O)N1CC(F)(Cn2c(=O)c(=O)n(-c3c(C)ccnc3C(C)C)c3nc(-c4c(Cl)ccc5c4OCO5)c(Cl)cc32)C1	≤ 100	≤ 100
C=CC(=O)N1CC(F)(Cn2c(=O)c(=O)n(-c3c(C)ccnc3C(C)C)c3nc(-c4cccc(Cl)c4Cl)c(Cl)cc32)C1	≤ 100	≤ 100
C=CC(=O)N1CC(F)(Cn2c(=O)c(=O)n(-c3c(C(C)C)cccc3C(C)C)c3nc(-c4cc(O)cc5ccccc45)c(Cl)cc32)C1	≤ 100	≤ 100

Next, values leading:

IC50 (GTPase KRas [1]) [nM]	IC50 (GTPase KRas [2]) [nM]	Structure (SMILES)
≤ 100	≤ 100	C=CC(=O)N1CC(F)(Cn2c(=O)c(=O)n(-c3c(C)ccnc3C(C)C)c3nc(-c4c(F)ccc(F)c4O)c(Cl)cc32)C1
≤ 100	≤ 100	C=CC(=O)N1CC(F)(Cn2c(=O)c(=O)n(-c3c(C)ccnc3C(C)C)c3nc(-c4ccccc4F)c(Cl)cc32)C1
≤ 100	≤ 100	C=CC(=O)N1CC(F)(Cn2c(=O)c(=O)n(-c3c(C)ccnc3C(C)C)c3nc(-c4c(N)cccc4F)c(Cl)cc32)C1
